Assay results from ChEMBL document CHEMBL3507680, “University of Dundee, Gates Library screen for HepG2 cell viability”.

Test: Human HepG2 cell viability assay in 384 well format
Format: toxicity, cell-based
Parameters: dose 125 nL, time 70.5 hour; cytotoxicity at 70.5 h: concentration not given beside the values
Settings: HepG2 cells, read-out: Inhibition

| SMILES | cytotoxicity at 70.5 h [%] |
| --- | --- |
| O=C([C@@H]1CCO[C@@H]2CCN(Cc3cccs3)C[C@H]21)N1CCCCO1 | -18.4 |
| O=C(Nc1ncn(CC(=O)N2CCCCCC2)n1)C1CCCC1 | -7.56 |
| Cc1cccc2c(=O)c(C(=O)N3CCCC4(CN(C)C(=O)O4)C3)c[nH]c12 (configuration not stated) | -3.6 |
| C[C@]1(O)CCN(Cc2ncccc2F)C[C@@H]1Oc1ccccc1 | -6.62 |
| NCCc1nc(N(Cc2cncs2)C2CC2)c2ccccc2n1 | 24.1 |
| Cn1cnnc1C1CCCN(C(=O)c2ccccc2Cl)C1 (configuration not stated) | -4.06 |
| COCC1CN(C(=O)Nc2ccc(Cl)cc2Cl)CCO1 (configuration not stated) | -8.42 |
| CCCC(NC(=O)c1cc(C)c(F)cc1F)c1nnn[nH]1 (configuration not stated) | -2.37 |
| CC(Cn1ccnc1)NC1CCN(Cc2cccc(O)c2)CC1 (configuration not stated) | -4.85 |
| CC(C)NC(=O)[C@@H]1CN(C)C[C@]12COc1ccc(F)cc1C2=O | -5.13 |
| COc1cccc(CC(=O)NC(C)c2nc3cccnc3n2C(C)C)c1 (configuration not stated) | -2.69 |
| CCC(=O)Nc1nnc(CCOc2ccc(OC)cc2)s1 | 3.07 |
| Cc1nc(C)n(C2CCCN(C(=O)c3ccc(N(C)C)nn3)C2)n1 (configuration not stated) | -3.22 |
| CC(C)CS(=O)(=O)CC(=O)N(C)Cc1ccc(OC(F)F)cc1 | -3.66 |
| COC(=O)c1cccn1C1CCN(C(=O)c2cn[nH]c2C)CC1 | -1.46 |
| CCN(Cc1cnn(C)c1)C[C@H]1CC[C@@H](Cc2cccc(CN)c2)O1 | 3.32 |
| CN1CCOC(C(=O)N2CCCC(C)(C)CC2)C1 (configuration not stated) | -3.51 |
| Cc1nc2c(c(NC3CC3)n1)CCN(C(=O)CCc1cccnc1)CC2 | 12.4 |
| CN1CCC2(COCc3cnc(N4CCOCC4)nc32)C1 (configuration not stated) | -16.8 |

| SMILES | cytotoxicity at 70.5 h [%] |
| --- | --- |
| C/C=C(/C)C(=O)NS(=O)(=O)c1ccc(Cl)cn1 | -0.512 |
| CC(C)CNC(=O)c1sccc1-n1cnnn1 | -7.28 |
| Cc1nc(C2CCCN(C(=O)c3cc(C(C)(C)C)on3)C2)no1 (configuration not stated) | -1.93 |
| COc1ccc(OC)c(CNCCc2cc(F)cc3c2OCOC3)c1 | 9.35 |
| CC(=O)Nc1c(C)noc1/C=C\c1ccc(S(=O)(=O)N2CCCC2)cc1 | -3.48 |
| Cc1nn(C(C)C)c2cnn(CC(=O)N3CCN(C)CC3)c12 | -8.52 |
| Cc1nnsc1C(=O)NCCn1ccc(-c2ccncc2)n1 | 18.8 |
| NC(=O)N1CCC2(CC1)CN(c1ccsc1)C(=O)CO2 | 17.7 |
| Nc1cc2c(nn1)CCN(C(=O)c1csc(-c3ccccc3)n1)C2 | -1.92 |
| Cn1cc(CN2CCOCC3(CCN(C4CCOCC4)C3)C2)cn1 (configuration not stated) | 6.49 |
| CCc1nccn1-c1cncc(C2CCN(C(=O)COC)CC2)n1 | -6.24 |
| CCC(=O)c1ccc(OCC(=O)NC(C)c2nnc(C)[nH]2)cc1 (configuration not stated) | -3.79 |
| CCCn1cc(-c2cc(C(=O)N(C)C)c3ccc(OC)cc3n2)cn1 | -3.58 |
| c1ccc(OCc2n[nH]c3c2CN(Cc2cccs2)C3)nc1 | -0.121 |
| Cc1cc(C(=O)Nc2cccn(Cc3ccc(F)cc3)c2=O)on1 | -3.03 |
| O=C(NCC1CC[C@@]2(CNCCOC2)O1)c1cnccn1 (some centres not stated) | 27.6 |
| Cc1noc(C)c1C(=O)N(Cc1ccsc1)CC1CCCO1 (configuration not stated) | 3.1 |
| CC(=O)N1CCc2c(nc(-c3ccncc3)nc2N(C)CC(O)CO)C1 (configuration not stated) | -9.59 |
| Cc1ccc(S(=O)(=O)NC2CC2)cc1C | -5.86 |

| SMILES | cytotoxicity at 70.5 h [%] |
| --- | --- |
| COc1cccc(OCC2CCCN(C(=O)c3cnc(C)nc3O)C2)c1 (configuration not stated) | -9.18 |
| Cc1nc(C2CCCN(C(=O)c3ccnc(N(C)C)c3)C2)no1 (configuration not stated) | -3.61 |
| CC(Cn1ccnc1)NC(=O)N1CCN(Cc2ccco2)CC1 (configuration not stated) | 0.365 |
| c1cnnc(N2CCCC2CNCCc2cccs2)c1 (configuration not stated) | -7.61 |
| CCOc1cccc2c1OCC(C(=O)NS(=O)(=O)c1cncc(Br)c1)=C2 | 2.74 |
| O=C(c1cn(-c2ccccc2Cl)nn1)N1CCN(CCO)CC1 | -5.32 |
| c1ccc(-c2nnc3n2CCN(c2nc(C4CC4)ns2)C3)cc1 | -8 |
| CCc1nc(NS(=O)(=O)c2cc(C)ccc2F)no1 | -8.12 |
| CCN1C[C@@H]2CN(C(=O)C3CC=CC3)C[C@@H]2C1=O | 28 |
| CCSc1ncc(CN2CCN(c3nc(C)cnc3C)CC2)cn1 | 23.3 |
| CCN(CC)C(CNCc1ccc(O)cc1)c1ccco1 (configuration not stated) | 27 |
| CCn1c(CN2CCOC(Cn3cccn3)C2)nc2c(F)cccc21 (configuration not stated) | -3.89 |
| Cc1ccc(CNCCN2CCOCC2)o1 | 8.67 |
| Cn1cc(CN2C[C@@H]3[C@@H](C2)OCC(=O)N3Cc2ccncc2)cn1 | -6.23 |
| COCC1c2c(cnn2C)CCN1Cc1ccoc1 (configuration not stated) | -3.89 |
| c1ccc2sc(N3CCOC(Cn4cccn4)C3)nc2c1 (configuration not stated) | 3.57 |
| CCOC(=O)N1CC(=O)N(Cc2cccc(OC)c2OC)CC(O)C1 (configuration not stated) | -5.06 |
| CCc1cc(N2CCC(NC3CN4CCC3CC4)CC2)nc(N(C)C)n1 (configuration not stated) | 29.4 |
| N#Cc1ccc(N2CCCN(c3nccs3)CC2)nc1 | 1.75 |
